Laboratory results as given in ChEMBL document CHEMBL1146902, “Antifungal anthraquinones from Saprosma fragrans” (2006).
In brackets after ≈: the same amount, converted by molar mass.

Key:
Cryptococcus neoformans = assay: Antifungal activity against Cryptococcus neoformans; assay type: functional
Sporothrix schenckii = assay: Antifungal activity against Sporothrix schenckii; assay type: functional
Candida albicans = assay: Antifungal activity against Candida albicans; assay type: functional
Trichophyton benhamiae = assay: Antifungal activity against Trichophyton mentagrophytes; assay type: functional, Arthroderma benhamiae
Aspergillus fumigatus = assay: Antifungal activity against Aspergillus fumigatus; assay type: functional

Row | MIC (Cryptococcus neoformans) | MIC (Sporothrix schenckii) | MIC (Candida albicans) | MIC (Trichophyton benhamiae) | MIC (Aspergillus fumigatus) | Structure (SMILES)
1 | 50 µg/mL (≈ 168 µM) | 25 µg/mL (≈ 83.8 µM) | 50 µg/mL (≈ 168 µM) | 12.5 µg/mL (≈ 41.9 µM) | > 100 µg/mL | COc1c(C=O)c(O)c(O)c2c1C(=O)c1ccccc1C2=O
2 | 0.09 µg/mL (≈ 0.261 µM) | 1.56 µg/mL (≈ 4.52 µM) | 3.1 µg/mL (≈ 8.99 µM) | 0.39 µg/mL (≈ 1.13 µM) | 1.56 µg/mL (≈ 4.52 µM) | Clc1ccccc1C(c1ccccc1)(c1ccccc1)n1ccnc1 [CLOTRIMAZOLE]
3 | 12.5 µg/mL (≈ 44.3 µM) | 6.25 µg/mL (≈ 22.1 µM) | 50 µg/mL (≈ 177 µM) | 1.56 µg/mL (≈ 5.53 µM) | 50 µg/mL (≈ 177 µM) | COc1c(C=O)c(O)cc2c1C(=O)c1ccccc1C2=O [DAMNACANTHAL]
